The values that follow are results of earlier work, collected in US11529374B2, “Extract and formulation including extract” (NIPPON ZOKI PHARMACEUTICAL CO., LTD., priority 2012, dated 2022).

For the series the following is noted: particularly an effect for non-inflammatory pain diseases such as neuropathic pain disease; Japanese Patent No. 4005115, CN 101600438B.

Consider `CC(=O)N[C@H]1[C@H]([C@H](O)[C@H](O)CO)OC(O)(C(=O)O)C[C@@H]1O` (stereo partly shown) [N-acetylneuraminic acid], for which the Analgesic action result is listed as “has an analgesic action”.
